The values that follow come from US20060069132A1, “Azolecarboxamide herbicides” (priority 2004, published 2006).

One assay relates to velvetleaf (ABUTH). In words: Test J Compounds 2 and 6 alone and in combination with other herbicides, foliage spray. The following applies: applied alone. It is filed as in vivo, Abutilon theophrasti. More on the design: key: 0 = no effect, 100 = complete control. An excerpt: (§1) Colby's Equation was used to calculate the expected additive herbicidal effect of the mixtures of Compound 6 with Harmony® Extra (i.e. a 2:1 mixture by weight of thifensulfuron-methyl and tribenuron-methyl). […]
(§2) Seeds of test plants consisting of barnyardgrass (ECHCG; Echinochloa crus-galli (L.) Beauv.), blackgrass (ALOMY; Alopecurus myosuroides Huds.), Surinam grass (BRADC; Urochloa decumbens (Staph) R. D. Webster, previously named Brachiaria decumbens Stapf), cocklebur (XANST, Xanthium strumarium L.), corn (ZEAMD, Zea mays L. cv. ‘Pioneer 33G26’), large crabgrass (DIGSA, Digitaria sanguinalis (L.) Scop.), giant foxtail (SETFA, Setaria faberi Herrm.), lambsquarters (CHEAL, Chenopodium album L.), morningglory (IPOCO, Ipomoea coccinea L.), pigweed (AMARE, Amaranthus retroflexus L.), velvetleaf (ABUTH, Abutilon theophrasti Medik.) wheat (TRZAS, Triticum aestivum L. cv. ‘Recital’) and wild oat (AVEFA, Avena fatua L.) were planted in Redi-Earth® planting medium (Scotts Company, 14111 Scottslawn Road, Marysville, Ohio 43041) comprising spaghnum peat moss and vermiculite. […] Also listed in Table J are the expected effects for the mixtures calculated using Colby's Equation.

Another assay relates to wheat (TRZAS). The description is as above. It is filed as in vivo, Triticum aestivum. Also on record: key: 0 = no effect, 100 = complete control. To be noted: applied alone.
Text: as §1, §2

For a further assay, the system named is giant foxtail (SETFA). The assay is described as above. Format: in vivo, Setaria faberi. Also on record: key: 0 = no effect, 100 = complete control. The following applies: applied alone.
Text: as §2, with “vermiculite. Seeds of small-seeded species were planted about 1 cm deep; larger seeds were planted about 2.5 cm deep. Plants were grown in a greenhouse using supplemental lighting to maintain a photoperiod of about 14 hours; daytime and nighttime temperatures were about 24-30° C. and 22-25° C., respectively. Balanced fertilizer was applied through the watering system.” for “vermiculite.”

The subject of a further assay is annual blugrass. In words: Test F pre-/postemergence herbicide test. Format: in vivo, Poa annua. An excerpt:
(§3) Seeds of plant species selected from annual blugrass (Poa annua L.), blackgrass (Alopecurus myosuroides Huds.), catchweed bedstraw (Gallium aparine L.), common chickweed (Stellaria media (L.) Vill./Cyr.), downy bromegrass (Bromus tectorum L.), green foxtail (Setaria viridis (L.) Beauv.), Italian ryegrass (Lolium multiflorum Lam.), kochia (Kochia scoparia (L.). Schrad.), lambsquarters (Chenopodium album L.), littleseed canarygrass (Phalaris minor Retz.), pigweed (Amaranthus retroflexus L.), Russian thistle (Salsola kali L. ssp. Ruthenica (Iljin) Soo), wild buckwheat (Polygonum convolvulus L.), wild mustard (Sinapis arvensis L.), wild oat (Avena fatua L.), windgrass (Apera spica-venti (L.) Beauv.), winter barley (Hordeum vulgare L.), and wheat (Triticum aestivum L.) were planted and treated preemergence with test chemicals formulated in a non-phytotoxic solvent mixture which included a surfactant.
(§4) At the same time, plants selected from these crop and weed species were treated with postemergence applications of some of the test chemicals formulated in the same manner. Plants ranged in height from 2 to 18 cm (1- to 4-leaf stage) for postemergence treatments. Treated plants and controls were maintained in a greenhouse for 12 to 14 days, after which time all species were compared to controls and visually evaluated. Plant response ratings, summarized in Table F, are based on a scale of 0 to 100 where 0 is no effect and 100 is complete control. A dash (-) response means no test result.

In another assay the test system is wild mustard. In words: Test F pre-/postemergence herbicide test. Format: in vivo, Sinapis arvensis.
Text: as §3, §4

Another assay concerns blackgrass. In words: Test F pre-/postemergence herbicide test. It is filed as in vivo, Alopecurus myosuroides.
Text: as §3, §4

A further assay has as its system catchweed bedstraw. Briefly: Test F pre-/postemergence herbicide test. Format: in vivo, Gallium aparine.
Text: as §3, §4

The subject of another assay is kochia. In words: Test F pre-/postemergence herbicide test. Format: in vivo, Kochia scoparia.
Text: as §3, §4

On to `CCn1nc(C(C)(C)C)cc1C(=O)Nc1cc(C(=O)N(C)C)ccc1F` [Compound 6, N-[5-[(dimethylamino)carbonyl]-2-fluorophenyl]-3-(1,1-dimethylethyl)-1-ethyl-1H-pyrazole-5-carboxamide], for which the “ABUTH Obsd.” value in the assay with velvetleaf (ABUTH) (62 g a.i./ha) turned out to be 27; with velvetleaf (ABUTH) (125 g a.i./ha), 47. The “TRZAS Obsd.” value in the assay on wheat (TRZAS) (62 g a.i./ha) worked out at 15; in the assay on wheat (TRZAS) (125 g a.i./ha) it was 30. Further, the “SETFA Obsd.” value is 15 in the assay on giant foxtail (SETFA) (62 g a.i./ha) and 33 in the assay with giant foxtail (SETFA) (125 g a.i./ha).

For the molecule `CCn1nc(C(C)(C)C)cc1C(=O)Nc1cc(C(=O)OC(C)C)c(F)cc1F` [Compound 248], the “Plant response rating (0-100), Bluegrass” value in the assay on annual blugrass (Postemergence, 31 g ai/ha) is listed as 50; with annual blugrass (Postemergence, 62 g ai/ha), 50; in the assay on annual blugrass (Postemergence, 125 g ai/ha) it was 60; in the assay with annual blugrass (Postemergence, 250 g ai/ha), 70; with annual blugrass (Preemergence, 31 g ai/ha), 70; in the assay with annual blugrass (Preemergence, 62 g ai/ha), 70. Further, the “Plant response rating (0-100), Bluegrass” value was 100 in the assay with annual blugrass (Preemergence, 125 g ai/ha) and 100 in the assay on annual blugrass (Preemergence, 250 g ai/ha). Moreover, the “Plant response rating (0-100), Mustard, Wild” value in the assay with wild mustard (Postemergence, 31 g ai/ha) worked out at 30; in the assay with wild mustard (Postemergence, 62 g ai/ha) it was 40; in the assay on wild mustard (Postemergence, 125 g ai/ha), 60; in the assay with wild mustard (Postemergence, 250 g ai/ha) it was 60; with wild mustard (Preemergence, 31 g ai/ha) it was 40; with wild mustard (Preemergence, 62 g ai/ha), 50. For the same molecule, the “Plant response rating (0-100), Mustard, Wild” value turned out to be 50 in the assay with wild mustard (Preemergence, 125 g ai/ha) and 50 in the assay with wild mustard (Preemergence, 250 g ai/ha). Further, the “Plant response rating (0-100), Blackgrass” value with blackgrass (Postemergence, 31 g ai/ha) is reported as 45; in the assay on blackgrass (Postemergence, 62 g ai/ha), 50; with blackgrass (Postemergence, 125 g ai/ha), 60; in the assay on blackgrass (Postemergence, 250 g ai/ha) it was 60; with blackgrass (Preemergence, 31 g ai/ha), 50; in the assay with blackgrass (Preemergence, 62 g ai/ha), 50. For the same molecule, the “Plant response rating (0-100), Blackgrass” value in the assay with blackgrass (Preemergence, 125 g ai/ha) turned out to be 65; with blackgrass (Preemergence, 250 g ai/ha) it was 65. For the same molecule, the “Plant response rating (0-100), Galium” value in the assay with catchweed bedstraw (Postemergence, 31 g ai/ha) is recorded as 50; with catchweed bedstraw (Postemergence, 62 g ai/ha) it was 50; with catchweed bedstraw (Postemergence, 125 g ai/ha), 60; in the assay on catchweed bedstraw (Postemergence, 250 g ai/ha) it was 60; in the assay with catchweed bedstraw (Preemergence, 31 g ai/ha) it was 30; in the assay on catchweed bedstraw (Preemergence, 62 g ai/ha), 50. Moreover, the “Plant response rating (0-100), Galium” value in the assay with catchweed bedstraw (Preemergence, 125 g ai/ha) is 50; with catchweed bedstraw (Preemergence, 250 g ai/ha), 60. Besides, the “Plant response rating (0-100), Kochia” value was 60 in the assay on kochia (Postemergence, 31 g ai/ha); 60 with kochia (Postemergence, 62 g ai/ha); 65 with kochia (Postemergence, 125 g ai/ha); 65 in the assay with kochia (Postemergence, 250 g ai/ha); 50 with kochia (Preemergence, 31 g ai/ha); 60 in the assay on kochia (Preemergence, 62 g ai/ha). Moreover, the “Plant response rating (0-100), Kochia” value in the assay on kochia (Preemergence, 125 g ai/ha) is 65; with kochia (Preemergence, 250 g ai/ha) it was 100.
